Read-outs that look alike come from different tables or passages of the source.
Tests used:
[1] = Fluorescence quantum yield measurement of compounds 1 to 6; format: physicochemical
Description: Compounds 1 to 6 obtained above were measured for their fluorescence.
Compounds 1 to 6 were also measured for their fluorescence quantum yield (Φfl). […] With respect to compounds 5 and 6, it should be noted that their fluorescence quantum yields were calculated as values in isolated form based on the concentration ratio determined by HPLC.

[2] = Fluorescence quantum yield, absolute PL quantum yield measurement system (Quantaurus-QY); format: physicochemical; details: 0.2 μM, 0.02% DMSO, 200 mM sodium phosphate buffer pH 7.3, 470 nm excitation light
Description: The absorption spectra and fluorescence quantum yields of the compounds were measured as follows.
A 1 mM solution of compound 7 in DMSO was prepared and this solution was added to 200 mM sodium phosphate buffers of pH 2 to 12 to prepare 1 μM sample solutions containing 0.1% DMSO. These sample solutions were measured for their absorption spectra between 300 nm and 600 nm with an ultraviolet and visible spectrophotometer UV-2450 (Shimadzu Corporation, Japan). In addition, a 0.2 μM sample solution of compound 7 containing 0.02% DMSO in 200 mM sodium phosphate buffer (pH 7.3) was prepared and measured for its fluorescence quantum yield using an absolute PL quantum yield measurement system, Quantaurus-QY (Hamamatsu Photonics K.K., Japan), under irradiation with 470 nm excitation light.

[3] = test system: Rhodococcus sp. strain SK92-derived nitrilase; assay: Nitrilase-catalyzed reaction for 24 hours, observation by the naked eye (Example 4); format: biochemical; details: 0.1 mM substrate stock, JM109/pUC118 control showed little change in color
Description: 10 μL of sodium phosphate buffer (pH 7.0), 75 μL of sterilized water and 5 μL of 0.1 mM nitrile fluorescent substrate (compound 2: dissolved in DMSO) were mixed together and pre-incubated at 30° C. A cell-free extract (10 μL), which had been prepared in the same manner as shown in Example 3, was added to initiate the reaction.

[4] = molecular target: T1, Rhodococcus rhodochrous strain J1-derived nitrile hydratase (Rhodococcus rhodochrous, UniProt P21219+P21220); assay: Detection of nitrile hydratase-catalyzed enzymatic reaction using fluorometer (Example 5); format: biochemical; details: for increase in fluorescence in comparison with a solution not containing the cell-free extract: crude nitrile hydratase solution, 37° C., 5 h after addition, 490 nm excitation light
T1 construct: made in house; host or cells: Rhodococcus rhodochrous ATCC12674 transformed with pSJ034; crude cell-free extract
T1 sequence (P21219 1-203): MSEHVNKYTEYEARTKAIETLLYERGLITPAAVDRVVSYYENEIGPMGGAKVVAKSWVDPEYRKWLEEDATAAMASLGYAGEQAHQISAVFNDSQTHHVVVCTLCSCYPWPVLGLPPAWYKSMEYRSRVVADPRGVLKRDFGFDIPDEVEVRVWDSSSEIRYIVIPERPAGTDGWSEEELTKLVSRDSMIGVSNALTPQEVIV
T1 sequence (P21220 1-229): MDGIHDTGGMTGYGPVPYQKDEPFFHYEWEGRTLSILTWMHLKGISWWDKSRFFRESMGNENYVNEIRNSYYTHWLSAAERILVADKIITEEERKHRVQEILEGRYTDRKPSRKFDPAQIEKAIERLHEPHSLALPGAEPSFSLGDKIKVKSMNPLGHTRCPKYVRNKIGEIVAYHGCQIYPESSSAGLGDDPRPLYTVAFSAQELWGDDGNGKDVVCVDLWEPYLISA
Description: Nitrile hydratase solution was prepared in the same manner as shown in Example 2.
(§1) 178 μL of sodium phosphate buffer (200 mM, pH 7.3) and 2 μL of 1 mM fluorescent substrate (compound 7 or compound 2: dissolved in DMSO) were mixed together and pre-incubated at 37° C. The cell-free extract prepared above (20 μL) was added to initiate the reaction. Sampling was conducted at one hour intervals by addition of 380 μL sodium phosphate buffer (200 mM, pH 7.3) to 20 μL reaction solution, and each sample was measured for its fluorescence using a spectrophotofluorometer, model F-4500 (Hitachi High-Technologies Corporation, Japan). The measurement was performed with 490 nm excitation light under the following conditions: a slit width of 2.5 nm/2.5 nm, a photomultiplier voltage of 700 V and 37° C.

[5] = molecular target: T1, Rhodococcus rhodochrous strain J1-derived nitrile hydratase; assay: Nitrile hydratase-catalyzed reaction with cell-free extract, detection with fluorescence imager (Example 2); format: biochemical; details: 30° C., 1 hour, excited at 488 nm, detected at 530 nm; vector pK4 control showed no change
Text: Plasmid pSJ034 designed to constitutively express Rhodococcus rhodochrous strain J1-derived nitrile hydratase in Rhodococcus bacterial cells was introduced into Rhodococcus rhodochrous strain ATCC12674. pSJ034 has been prepared from plasmid pSJ023 as described in the specification of JP 10-337185 A. pSJ023 was deposited as a transformant, R. rhodochrous ATCC12674/pSJ023 (FERM BP-6232), with the International Patent Organism Depositary, the National Institute of Advanced Industrial Science and Technology.
Rhodococcus rhodochrous strain ATCC12674 was transformed with plasmid pSJ034 to prepare ATCC12674/pSJ034. The strain 12674 was also transformed with vector pK4 for use in a control experiment.
The colony was cultured as follows. The colony was inoculated into a kanamycin (50 mg/L)-containing MYK medium (10 ml) and pre-cultured at 30° C. for 24 hours. […]
10 μL of sodium phosphate buffer (pH 7.0), 75 μL of sterilized water and 5 μL of 0.01 mM nitrile fluorescent substrate (compound 2: dissolved in 10% DMSO) were mixed together and pre-incubated at 30° C. […] After the reaction at 30° C. for 1 hour, the mixture was transferred to a 96-well microplate and fluorescence was detected with a fluorescence imager (BioRad Pharos FX molecular Imager, excited at 488 nm, detected at 530 nm).

[6] = test system: Rhodococcus sp. strain SK92-derived nitrilase; assay: Nitrilase-catalyzed reaction with cell-free extract, detection with fluorescence imager (Example 3); format: biochemical; details: 30° C., 1 hour, excited at 488 nm, detected at 530 nm; JM109/pUC118 control showed no change
Description: 10 μL of sodium phosphate buffer (pH 7.0), 75 μL of sterilized water and 5 μL of 0.01 mM nitrile fluorescent substrate (compound 2: dissolved in 10% DMSO) were mixed together and pre-incubated at 30° C. The cell-free extract prepared above (10 μL) was added to initiate the reaction. After the reaction at 30° C. for 1 hour, the mixture was transferred to a 96-well microplate and fluorescence was detected with a fluorescence imager (BioRad Pharos FX molecular Imager, excited at 488 nm, detected at 530 nm).
A recombinant E. coli, JM109/pSK002, which highly expresses Rhodococcus sp. strain SK92-derived nitrilase (JP 8-173169 A) was inoculated into 1 ml of a 50 ampicillin-containing LB medium (1% Bactotryptone, 0.5% Bactoyeast extract, 0.5% NaCl) and pre-cultured at 37° C. for 7 hours. The culture broth was taken in a volume of 0.1 ml and added to 100 ml of the same medium (containing 50 μg/ml ampicillin and 1 mM IPTG), followed by shaking culture at 37° C. for 15 hours. The resulting culture broth was centrifuged (3,700×g, 10 minutes, 4° C.) to collect the cells, which were then washed with 10 mM sodium phosphate buffer (pH 7.0) and suspended in the same buffer. As a control strain, JM109/pUC118 was used. […]
In the same manner as shown in Example 2, the reaction was performed using a nitrile fluorescent substrate (compound 2), followed by detection with a fluorescence imager.

[7] = molecular target: T1, Rhodococcus rhodochrous strain J1-derived nitrile hydratase; assay: HPLC analysis on nitrile hydratase-catalyzed reaction solution (Example 5); format: biochemical; details: 37° C., 5 hours, absorption at 500 nm
Description: (§2) After reaction at 37° C. for 5 hours as described above, the reaction solution was analyzed by HPLC under the following conditions. • Model: fluid delivery pump PU-2080 (JASCO) • Column: Inertsil ODS-3 (4.6×250 mm) column (GL Sciences Inc.) • Solvent: eluted with a linear gradient from 75% acetonitrile/0.1% TFA in water (0 min) to 15% acetonitrile/0.1% TFA in water (30 min) • Detection: detector MD-2010 (JASCO), monitored by absorption at 500 nm

[8] = test system: Rhodococcus sp. strain SK92-derived nitrilase; assay: Detection of nitrilase-catalyzed enzymatic reaction using fluorometer (Example 6); format: biochemical
Description: as §1
Nitrilase solution was prepared in the same manner as shown in Example 3.
Detection was conducted in accordance with the procedures shown in Example 5, provided that the compound used in the experiment was compound 7 and the enzyme solutions used were a cell-free extract derived from JM109/pSK002 (containing nitrilase) and a cell-free extract derived from the above control strain JM109/pTrc99A (having no nitrilase activity).

[9] = test system: Rhodococcus sp. strain SK92-derived nitrilase; assay: HPLC analysis on nitrilase-catalyzed reaction solution (Example 6); format: biochemical
Description: as §2
Nitrilase activity was analyzed in accordance with the procedures shown in Example 4.

[10] = Stability of product in nitrile hydratase-catalyzed reaction solution by HPLC (Example 7); format: in vitro ADME; details: absorption at 500 nm
Description: (§3) Product stability after enzymatic reaction was studied by HPLC analysis.
(§4) For HPLC analysis of the nitrile hydratase-catalyzed reaction solution (160 μL), the above pump, column, solvent conditions and detector were used to monitor absorption at 500 nm. On the other hand, for analysis of the nitrilase-catalyzed reaction solution (160 μL), the same procedure as used for analysis of the nitrile hydratase-catalyzed reaction solution was repeated to monitor absorption at 500 nm.

[11] = Stability of product in nitrilase-catalyzed reaction solution by HPLC (Example 7); format: in vitro ADME; details: absorption at 500 nm
Description: as §3, §4

[12] = calculated as values in isolated form based on the concentration ratio determined by HPLC (mixture of compounds 5 and 6)

## COC(=O)c1ccc(C#N)cc1-c1c2ccc(=O)cc-2oc2cc(O)ccc12 [compound 1]
[1]
  Fluorescence quantum yield (Φf1): 0.007

## COC(=O)c1cc(C#N)ccc1-c1c2ccc(=O)cc-2oc2cc(O)ccc12 [compound 2]
[2]
  fluorescence quantum yield: 0.172
[3]
  fluorescence observed by the naked eye with nitrilase-expressing recombinant cell-free extract: significant green fluorescence was observed
[1]
  Fluorescence quantum yield (Φf1): 0.161
[4]
  increase in fluorescence in comparison with a solution not containing the cell-free extract: ~3.9 fold
[5]
  change in intensity of fluorescence with nitrile hydratase-expressing recombinant cell-free extract: significant increase in the intensity of fluorescence
[6]
  change in intensity of fluorescence with nitrilase-expressing recombinant cell-free extract: significant increase in the intensity of fluorescence

## COC(=O)c1ccc(C(N)=O)cc1-c1c2ccc(=O)cc-2oc2cc(O)ccc12 [compound 3]
[1]
  Fluorescence quantum yield (Φf1): 0.018

## COC(=O)c1cc(C(N)=O)ccc1-c1c2ccc(=O)cc-2oc2cc(O)ccc12 [compound 4]
[1]
  Fluorescence quantum yield (Φf1): 0.397

## COC(=O)c1ccc(C(=O)O)cc1-c1c2ccc(=O)cc-2oc2cc(O)ccc12 [compound 5]
[1]; [12]
  Fluorescence quantum yield (Φf1): 0.0729

## COC(=O)c1cc(C(=O)O)ccc1-c1c2ccc(=O)cc-2oc2cc(O)ccc12 [compound 6]
[1]; [12]
  Fluorescence quantum yield (Φf1): 0.565

## N#Cc1ccc(-c2c3ccc(=O)cc-3oc3cc(O)ccc23)c(C(=O)OCc2ccc(Cl)cc2)c1 [compound 7, 5-cyanofluorescein-4-chlorobenzyl ester]
[7]
  HPLC peak of substrate after nitrile hydratase-catalyzed reaction: disappeared, while a peak of a new product generated by the enzymatic reaction appeared
[2]
  fluorescence quantum yield: 0.154
[8]; JM109/pSK002-derived cell-free extract (containing nitrilase), 5 h after addition
  increase in fluorescence in comparison with the absence of the cell-free extract: ~7.5 fold
[8]; JM109/pTrc99A-derived cell-free extract (having no nitrilase activity)
  increase in fluorescence with control cell-free extract: little increase in its fluorescence
[9]; JM109/pSK002-derived cell-free extract, absorption at 500 nm
  HPLC peak of substrate after nitrilase-catalyzed reaction: disappeared, while a peak of a new product generated by the enzymatic reaction appeared
[9]; JM109/pTrc99A-derived cell-free extract
  reaction product by HPLC with control cell-free extract: no reaction product was observed
[4]
  increase in fluorescence in comparison with a solution not containing the cell-free extract: ~7.2 fold
[4]; nitrile hydratase reaction, compound 7 versus compound 2
  increase in fluorescence relative to that of compound 2: 1.5 fold

## NC(=O)c1ccc(-c2c3ccc(=O)cc-3oc3cc(O)ccc23)c(C(=O)OCc2ccc(Cl)cc2)c1 [compound 9, 5-CONH2 fluorescein 4-chlorobenzyl ester]
[10]
  HPLC peak corresponding to ester hydrolysis product 5-CONH2 fluorescein: not observed

## O=C(O)c1ccc(-c2c3ccc(=O)cc-3oc3cc(O)ccc23)c(C(=O)OCc2ccc(Cl)cc2)c1 [compound 11]
[11]
  HPLC peak corresponding to ester hydrolysis product 5-carboxylfluorescein: not observed

Source: patent US20140072990A1, “FLUORESCENT SUBSTRATE FOR DETECTION OF ENZYMATIC ACTIVITY OF NITRILE-RELATED ENZYME” (The University of Tokyo, priority 2010, published 2014)
